Source: ChEMBL document CHEMBL4138146, “A Schmidt rearrangement-mediated synthesis of novel tetrahydro-benzo[1,4]diazepin-5-ones as potential anticancer and antiprotozoal agents” (Eur J Med Chem, 2017)
Values after ≈ are worked out from the molar mass of the structure shown.

Key:
SF-539 = assay: Growth inhibition of human SF539 cells assessed as cell growth at 10 uM incubated for 48 hrs by sulforhodamine B assay relative to control; assay type: functional; conditions: SF-539, 48 h, read-out: Activity
SK-MEL-5 = assay: Growth inhibition of human SK-MEL-5 cells assessed as cell growth at 10 uM incubated for 48 hrs by sulforhodamine B assay relative to control; assay type: functional; conditions: SK-MEL-5, 48 h, read-out: Activity
MCF7 = assay: Growth inhibition of human MCF7 cells assessed as cell growth at 10 uM incubated for 48 hrs by sulforhodamine B assay relative to control; assay type: functional; conditions: MCF7, 48 h, read-out: Activity
TK-10 = assay: Growth inhibition of human TK10 cells assessed as cell growth at 10 uM incubated for 48 hrs by sulforhodamine B assay relative to control; assay type: functional; conditions: TK-10, 48 h, read-out: Activity
DU-145 = assay: Growth inhibition of human DU145 cells assessed as cell growth at 10 uM incubated for 48 hrs by sulforhodamine B assay relative to control; assay type: functional; conditions: DU-145, 48 h, read-out: Activity
RXF 393 = assay: Growth inhibition of human RXF393 cells assessed as cell growth at 10 uM incubated for 48 hrs by sulforhodamine B assay relative to control; assay type: functional; conditions: RXF 393, 48 h, read-out: Activity
CAKI-1 = assay: Growth inhibition of human Caki1 cells assessed as cell growth at 10 uM incubated for 48 hrs by sulforhodamine B assay relative to control; assay type: functional; conditions: CAKI-1, 48 h, read-out: Activity
SN12C = assay: Growth inhibition of human SN12C cells assessed as cell growth at 10 uM incubated for 48 hrs by sulforhodamine B assay relative to control; assay type: functional; conditions: read-out: Activity
UACC-257 = assay: Growth inhibition of human UACC257 cells assessed as cell growth at 10 uM incubated for 48 hrs by sulforhodamine B assay relative to control; assay type: functional; conditions: UACC-257, 48 h, read-out: Activity
SR = assay: Growth inhibition of human SR cells assessed as cell growth at 10 uM incubated for 48 hrs by sulforhodamine B assay relative to control; assay type: functional; conditions: read-out: Activity
HL-60(TB) = assay: Growth inhibition of human HL-60(TB) cells assessed as cell growth at 10 uM incubated for 48 hrs by sulforhodamine B assay relative to control; assay type: functional; conditions: HL-60, 48 h, read-out: Activity
UACC-62 = assay: Growth inhibition of human UACC62 cells assessed as cell growth at 10 uM incubated for 48 hrs by sulforhodamine B assay relative to control; assay type: functional; conditions: UACC-62, 48 h, read-out: Activity
SF-295 = assay: Growth inhibition of human SF295 cells assessed as cell growth at 10 uM incubated for 48 hrs by sulforhodamine B assay relative to control; assay type: functional; conditions: SF-295, 48 h, read-out: Activity
RPMI-8226 = assay: Growth inhibition of human RPMI8226 cells assessed as cell growth at 10 uM incubated for 48 hrs by sulforhodamine B assay relative to control; assay type: functional; conditions: RPMI-8226, 48 h, read-out: Activity
EKVX = assay: Growth inhibition of human EKVX cells assessed as cell growth at 10 uM incubated for 48 hrs by sulforhodamine B assay relative to control; assay type: functional; conditions: read-out: Activity
SF-268 [1] = assay: Growth inhibition of human SF268 cells assessed as cell growth at 10 uM incubated for 48 hrs by sulforhodamine B assay relative to control; assay type: functional; conditions: SF-268, 48 h, read-out: Activity
HCC 2998 = assay: Growth inhibition of human HCC2998 cells assessed as cell growth at 10 uM incubated for 48 hrs by sulforhodamine B assay relative to control; assay type: functional; conditions: HCC 2998, 48 h, read-out: Activity
HCT-15 = assay: Growth inhibition of human HCT15 cells assessed as cell growth at 10 uM incubated for 48 hrs by sulforhodamine B assay relative to control; assay type: functional; conditions: HCT-15, 48 h, read-out: Activity
BT-549 = assay: Growth inhibition of human BT549 cells assessed as cell growth at 10 uM incubated for 48 hrs by sulforhodamine B assay relative to control; assay type: functional; conditions: BT-549, 48 h, read-out: Activity
M14 = assay: Growth inhibition of human M14 cells assessed as cell growth at 10 uM incubated for 48 hrs by sulforhodamine B assay relative to control; assay type: functional; conditions: M14, 48 h, read-out: Activity
NCI-H226 = assay: Growth inhibition of human NCI-H226 cells assessed as cell growth at 10 uM incubated for 48 hrs by sulforhodamine B assay relative to control; assay type: functional; conditions: NCI-H226, 48 h, read-out: Activity
NCI-H322M = assay: Growth inhibition of human NCI-H322M cells assessed as cell growth at 10 uM incubated for 48 hrs by sulforhodamine B assay relative to control; assay type: functional; conditions: read-out: Activity
NCI-H23 = assay: Growth inhibition of human NCI-H23 cells assessed as cell growth at 10 uM incubated for 48 hrs by sulforhodamine B assay relative to control; assay type: functional; conditions: NCI-H23, 48 h, read-out: Activity
IGROV-1 = assay: Growth inhibition of human IGROV1 cells assessed as cell growth at 10 uM incubated for 48 hrs by sulforhodamine B assay relative to control; assay type: functional; conditions: IGROV-1, 48 h, read-out: Activity
COLO 205 = assay: Growth inhibition of human COLO205 cells assessed as cell growth at 10 uM incubated for 48 hrs by sulforhodamine B assay relative to control; assay type: functional; conditions: COLO 205, 48 h, read-out: Activity
K562 = assay: Growth inhibition of human K562 cells assessed as cell growth at 10 uM incubated for 48 hrs by sulforhodamine B assay relative to control; assay type: functional; conditions: K562, 48 h, read-out: Activity
SK-MEL-28 = assay: Growth inhibition of human SK-MEL-28 cells incubated for 48 hrs by sulforhodamine B assay; assay type: functional; conditions: SK-MEL-28, 48 h; for CC50: read-out: LC50 (the source's name)
SF-268 [2] = assay: Growth inhibition of human SF268 cells incubated for 48 hrs by sulforhodamine B assay; assay type: functional; conditions: SF-268, 48 h
CCRF-CEM = assay: Growth inhibition of human CCRF-CEM cells incubated for 48 hrs by sulforhodamine B assay; assay type: functional
Trypanosoma cruzi = assay: Antitrypanosomal activity against Trypanosoma cruzi Tulahuen amastigote forms infected in human U937 cells after 72 hrs by beta-galactosidase reporter gene assay; assay type: functional, organism-based; conditions: U-937, 72 h
Plasmodium falciparum = assay: Antimalarial activity against chloroquine-sensitive Plasmodium falciparum 3D7 incubated for 48 hrs by malstat reagent based LDH release assay; assay type: functional, organism-based; conditions: 3D7, 48 h
Leishmania panamensis = assay: Antileishmanial activity against EpiR/GFP fused Leishmania panamensis MHOM/CO/87/UA140 intracellular amastigotes infected in human […] cells after 72 hrs by flow cytometric method; assay type: functional, organism-based; conditions: MHOM/CO/87/UA140, 72 h
U-937 = assay: Cytotoxicity against human U937 cells after 72 hrs by MTT assay; assay type: functional; conditions: U-937, 72 h, read-out: LC50 (the source's name)
MOLT-4 = assay: Growth inhibition of human MOLT4 cells assessed as cell growth at 10 uM incubated for 48 hrs by sulforhodamine B assay relative to control; assay type: functional; conditions: MOLT-4, 48 h, read-out: Activity

SMILES | growth at 10 µM (SF-539) [%] | growth at 10 µM (SK-MEL-5) [%] | growth at 10 µM (MCF7) [%] | growth at 10 µM (TK-10) [%] | growth at 10 µM (DU-145) [%] | growth at 10 µM (RXF 393) [%] | growth at 10 µM (CAKI-1) [%] | growth at 10 µM (SN12C) [%] | growth at 10 µM (SR) [%] | growth at 10 µM (HL-60(TB)) [%] | growth at 10 µM (UACC-62) [%] | growth at 10 µM (SF-295) [%] | growth at 10 µM (RPMI-8226) [%] | growth at 10 µM (EKVX) [%] | growth at 10 µM (SF-268 [1]) [%] | growth at 10 µM (HCC 2998) [%] | growth at 10 µM (HCT-15) [%] | growth at 10 µM (BT-549) [%] | growth at 10 µM (M14) [%] | growth at 10 µM (NCI-H226) [%] | other results
Cc1cccc2cc(C3CNC(=O)c4ccccc4N3)c(=O)[nH]c12 (centres undefined) | 94.9 | 102 | 98.8 | 94.6 | 109 | 106 | 100 | 114 | 110 | 116 | 106 | 98.8 | 114 | 98.4 | 99.6 | 103 | 102 | 112 | 98.4 | 85.6 | growth at 10 µM (UACC-257): 100%; growth at 10 µM (NCI-H322M): 92%; growth at 10 µM (NCI-H23): 98.4%; growth at 10 µM (IGROV-1): 106%; growth at 10 µM (COLO 205): 108%; growth at 10 µM (K562): 118%
COc1cccc2c1C(=O)c1c(O)c3c(c(O)c1C2=O)C[C@@](O)(C(=O)CO)C[C@@H]3O[C@H]1C[C@H](N)[C@H](O)[C@H](C)O1 [DOXORUBICIN] | – | – | – | – | – | – | – | – | – | – | – | – | – | – | – | – | – | – | – | – | GI50 (SK-MEL-28): 0.08 µM; CC50 (SK-MEL-28): 0.49 µM; GI50 (SF-268 [2]): 0.1 µM; GI50 (CCRF-CEM): 0.08 µM
CCCCOc1nc2ccccc2cc1C1CNC(=O)c2ccccc2N1 (centres undefined) | -25.5 | 15.6 | 21.2 | 34.3 | 10.7 | -14.3 | 42.6 | 44.1 | 19.8 | -8.72 | 32.6 | -5.68 | 25.6 | 33 | 43.6 | 56.5 | 15.3 | 41 | -23.1 | 0.7 | GI50 (SK-MEL-28): 5.89 µM; TGI (SK-MEL-28): 27.3 µM; CC50 (SK-MEL-28): 86.1 µM; growth at 10 µM (UACC-257): 57.2%; GI50 (SF-268 [2]): 4.14 µM; TGI (SF-268 [2]): > 100 µM; CC50 (SF-268 [2]; read-out: LC50 (the source's name)): > 100 µM; GI50 (CCRF-CEM): 2.95 µM; LC50 (concentration killing 50% of cells) (CCRF-CEM): > 100 µM; TGI (CCRF-CEM): 24.9 µM; growth at 10 µM (NCI-H322M): 47.2%; growth at 10 µM (NCI-H23): 23.8%; growth at 10 µM (IGROV-1): 38%; growth at 10 µM (COLO 205): 9.84%; growth at 10 µM (K562): 12.8%
O=C1NCC(c2cc3ccc(Cl)cc3[nH]c2=O)Nc2ccccc21 (centres undefined) | 95 | 102 | 97.4 | 83 | 110 | 97.2 | 101 | 111 | 115 | 111 | 106 | 107 | 119 | 95.2 | 106 | 105 | 103 | 99.9 | 96.8 | 79.7 | growth at 10 µM (UACC-257): 78.4%; EC50 (Trypanosoma cruzi): 86 µg/mL (≈ 253 µM); EC50 (Plasmodium falciparum): 59.3 µg/mL (≈ 175 µM); EC50 (Leishmania panamensis): 77.9 µg/mL (≈ 229 µM); growth at 10 µM (NCI-H322M): 98%; growth at 10 µM (NCI-H23): 94%; CC50 (U-937): > 200 µg/mL; growth at 10 µM (IGROV-1): 96.5%; growth at 10 µM (COLO 205): 94.9%; growth at 10 µM (K562): 124%
CCCCOc1nc2c(C)cccc2cc1C1CNC(=O)c2ccccc2N1 (centres undefined) | 68.3 | 43.4 | 15.8 | 98.7 | 86 | 78.3 | 52.1 | 70.9 | 18.1 | 26.2 | 29.1 | 52.5 | 57.5 | 61.9 | 66.9 | 101 | 43.4 | 74.5 | 54.7 | 89 | growth at 10 µM (MOLT-4): 39%; EC50 (Trypanosoma cruzi): 2.68 µg/mL (≈ 7.14 µM); EC50 (Plasmodium falciparum): > 20 µg/mL; EC50 (Leishmania panamensis): 3.35 µg/mL (≈ 8.92 µM); growth at 10 µM (NCI-H322M): 105%; growth at 10 µM (NCI-H23): 80%; CC50 (U-937): 1 µg/mL (≈ 2.66 µM); growth at 10 µM (COLO 205): 90.8%; growth at 10 µM (K562): 19%
